Experimental findings from patent US7714150B2, “Aminoalkyl-amidomethyl-substituted 2-(4-sulphonylamino)-3-hydroxy-3,4-dihydro-2H-chroman-6-yl derivatives” (Solvay Pharmaceuticals GmbH, priority 2005, dated 2010) are described below.

The structures appear in SMILES notation.

T1 sequence (P22001 whole entry): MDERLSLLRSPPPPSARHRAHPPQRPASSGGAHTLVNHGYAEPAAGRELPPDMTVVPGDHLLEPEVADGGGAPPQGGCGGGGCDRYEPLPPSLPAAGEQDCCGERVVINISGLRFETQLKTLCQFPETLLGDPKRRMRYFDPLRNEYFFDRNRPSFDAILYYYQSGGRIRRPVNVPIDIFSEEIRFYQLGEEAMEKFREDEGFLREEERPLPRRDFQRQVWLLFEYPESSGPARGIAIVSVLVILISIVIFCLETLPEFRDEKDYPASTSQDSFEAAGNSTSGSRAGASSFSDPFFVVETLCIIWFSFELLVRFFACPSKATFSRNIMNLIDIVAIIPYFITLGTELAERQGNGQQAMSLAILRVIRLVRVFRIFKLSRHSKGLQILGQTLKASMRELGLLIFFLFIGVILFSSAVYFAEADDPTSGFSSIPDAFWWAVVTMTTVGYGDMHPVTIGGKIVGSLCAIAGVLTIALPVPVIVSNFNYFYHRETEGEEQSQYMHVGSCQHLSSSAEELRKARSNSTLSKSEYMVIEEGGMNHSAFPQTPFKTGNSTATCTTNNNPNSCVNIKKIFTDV

The first experiment concerns left atrium of rats' hearts. Briefly: Functional refractory period prolongation on isolated left atria of rats' hearts in vitro. Also on record: species or system rat. The conditions noted are these: 10 μM. On the procedure: In this test model it is determined to what extent the Kv1.5-blocking substances of Formula I result in a prolongation of the functional refractory period in the left atrium of rats. The refractory period is the minimum possible elapsed time between the basic stimulus and additional stimulus in which a renewed contraction can be triggered. The extent of the prolongation of the functional refractory period is a measurement of the antiarrhythmic effectiveness of the substances according to the invention. The functional refractory period is determined by testing on the electrically stimulated preparation at what elapsed time from the preceding contraction a renewed contraction can be triggered by additional electrical stimuli.
The hearts were removed from freshly sacrificed rats (Sprague-Dawley, Charles-River, Germany). The left atria were isolated and fastened to force transducers in a temperature-controlled (30° C.), gasified (O2 95%, CO2 5%) organ bath which was filled with modified Tyrode solution (all values in mM: NaCl 137; KCl 2.7; CaCl2 1.8; MgCl2 0.8; NaHCO3 11.9; NaH2PO4 0.6; glucose 5). In order to trigger regular contractions, the preparations were electrically stimulated (rectangular pulses, pulse magnitude 3.5× threshold stimulus, pulse width 1.5 ms, frequency 1 Hz). Initially, the initial value of the functional refractory period was determined by applying extra pulses in addition to the basic stimulus, the elapsed time from the preceding basic stimulus being shortened until no further additional contraction could be triggered. Then the cumulative addition of increasing concentrations (0.1-32 μM) of the substances of Formula I took place at intervals of 20 min. each, the refractory period being determined again in each case 18 min. after the addition had taken place. Before the measurement, stock solutions of the test substances (3.2 and 0.32 mM in 100% DMSO) were prepared. In order to achieve the desired final concentrations of the substances (0.1-32 μM) in the organ bath (volume 25 or 100 ml), corresponding volumes of these stock solutions were then poured into the organ bath.
In each case the prolongation of the functional refractory period (FRP) in the left atrium of the rats' hearts in milliseconds observed after the addition of 10 or 32 μM of the respective substance of Formula I to the atrial preparations was given as characteristic variable.
With `CCCc1ccc(S(=O)(=O)N[C@@H]2c3cc(CC(=O)N4CCN(Cc5ccccc5)CC4)ccc3OC(C)(C)[C@H]2O)cc1` [Example 1], the FRP prolongation is on record as 15 (10 μM) ms.
Still for that read-out and setting: the value for `CC(C)CCN([C@@H]1c2cc(CC(=O)NCCN3CCCCC3)ccc2OC(C)(C)[C@H]1O)S(=O)(=O)c1ccc(I)cc1` [Example 3, (3S, 4R)-2-{3-Hydroxy-4-[(4-iodobenzenesulfonyl)-(3-methylbutyl)amino]-2,2-dimethylchroman-6-yl}-N-(2-piperidin-1-ylethyl)acetamide] was 15 (10 μM) ms; that for `Cc1ccc(S(=O)(=O)N(CC2CC2)[C@@H]2c3cc(CC(=O)N4CCN(Cc5ccccc5)CC4)ccc3OC(C)(C)[C@H]2O)cc1` [Example 7, (3S, 4R)-N-{6-[2-(4-Benzylpiperazin-1-yl)-2-Oxoethyl]-3-Hydroxy-2,2-Dimethylchroman-4-yl}-N-Cyclopropylmethyl-4-Methylbenzenesulfonamide] was 13 (10 μM) ms.
Same read-out and setting: then `CCc1ccc(S(=O)(=O)NC2c3cc(CC(=O)N4CCN(Cc5ccccc5)CC4)ccc3OC(C)(C)C2O)cc1` (stereo not drawn) [Example 10, N-{6-[2-(4-benzyl-piperazin-1-yl)-2-oxo-ethyl]-3-hydroxy-2,2-dimethyl-chroman-4-yl}-4-ethyl-benzenesulfonamide], with 24 (10 μM) ms.

The same experiment, now with this note: 32 μM.
Take `COc1cccc(S(=O)(=O)N(CCC(C)C)[C@@H]2c3cc(CC(=O)NCC4CN(Cc5ccccc5)CCO4)ccc3OC(C)(C)[C@H]2O)c1` (stereo partly drawn) [Example 6]: the FRP prolongation is listed as 16 (32 μM) ms.
Still for that read-out and setting: then `CCc1ccc(S(=O)(=O)N[C@@H]2c3cc(CC(=O)N4CCN(Cc5cccnc5)CC4)ccc3OC(C)(C)[C@H]2O)cc1` [Example 8, 4-Ethyl-N-((3S,4R)-3-Hydroxy-2,2-Dimethyl-6-{2-Oxo-2-[4-(pyridin-3-ylmethyl)piperazin-1-yl]ethyl}-3,4-dihydro-2H-Chromen-4-yl)Benzenesulfonamide], with 22 (32 μM) ms.

The next experiment has as its target T1, Kv1.3-potassium channel (Homo sapiens, UniProt P22001).
T1 construct: expressed in transfected cells; host or cells: CHO (Chinese hamster ovary) cells, stably transfected with a Kv1.3 plasmid
Briefly: Kv1.3-potassium channel-blocking effect in vitro (membrane potential-sensitive dye fluorescence in transfected CHO cells). Format: cell-based. The conditions noted are these: 10 μM test substance; CHO cells transfected with Kv1.3; relative to margatoxin. The source says: In this test model, known ovary cells of the Chinese hamster (=CHO) are used which are stably transfected with the Kv1.3-potassium channel The blockade of the cell-inherent Kv1.3-potassium channel activity in the transfected cells is accompanied by a positive shift in the membrane potential from approx. −40 mV to −30 mV, whereas in the wild-type CHO cells investigated in parallel no significant shift in the membrane potential is triggered. A change in the membrane potential is thus connected to the reduction in the Kv1.3-potassium channel activity. By blocking the Kv1.3-potassium channels e.g. with substances of Formula I and the resulting change in the membrane potential, an accumulation of a membrane potential-sensitive fluorescent dye in intracellular compartments of the ovary cells and ultimately increasing fluorescence occurs. The change in the membrane potential of the ovary cells is therefore measured indirectly via the increase in fluorescence of the membrane potential-sensitive dyes.
The cells were transfected with the Kv1.3 plasmid in known manner with a commercially obtainable transfection reagent (DMRIE-C from Gibco BRL, Germany). The successful transfection was verified by means of immunofluorescence and by “patch-clamp” investigations of the potassium ion current. The fluorescence measurements were performed on a Tecan Safire fluorescence reader from Tecan, Germany. In each case, the increase in the fluorescent intensity caused by the blockade of the Kv1.3-potassium channels in the ovary cells with substances of Formula I in a concentration of 10 μM was determined as characteristic variable. The increase in the fluorescent intensity was given in each case in percent (%) compared with an increase in the fluorescent intensity caused by the reference substance margatoxin. Margatoxin is known as a selective Kv1.3-potassium channel blocker (see e.g. M. Garcia-Calvo et al., J. Biol. Chem. 268 (1993) 18866-18874).
Regarding `CCC(CC)CN([C@@H]1c2cc(CC(=O)N[C@@H]3CCN(Cc4ccccc4)C3)ccc2OC(C)(C)[C@H]1O)S(=O)(=O)c1cccc(OC)c1` [Example 4, (3S, 4R)-N-(1-Benzylpyrrolidin-3R-yl)-2-{4-[(2-Ethylbutyl)-(3-Methoxybenzenesulfonyl)Amino]-3 -Hydroxy-2,2-Dimethylchroman-6-yl}Acetamide], the “Increase in the fluorescent intensity (% margatoxin)” value came out at 41.8 % margatoxin.
As to `CCCCN(CC)CCNC(=O)Cc1ccc2c(c1)[C@@H](N(CC(CC)CC)S(=O)(=O)c1ccc(I)cc1)[C@H](O)C(C)(C)O2` [Example 5, (3S, 4R)-N-[2-(Butylethylamino)Ethyl]-2-{4-[(2-Ethylbutyl)-(4-iodobenzenesulfonyl)Amino]-3-Hydroxy-2,2-dimethylchroman-6-yl)Acetamide], the “Increase in the fluorescent intensity (% margatoxin)” value was 39.8 % margatoxin.
The same measure, in the same setting: the value for `COc1cccc(S(=O)(=O)N(CCC(C)C)[C@@H]2c3cc(CC(=O)NCC4CN(Cc5ccccc5)CCO4)ccc3OC(C)(C)[C@H]2O)c1` (stereo partly drawn) [Example 6] was 59.9 % margatoxin.
